Like-named read-outs stand apart in the source and are kept apart here.
Assays:
[1] = tested on: IDH2 mutant cell line TF1-R140Q; test: Hemoglobinization / EPO induced differentiation assay with flow cytometry; assay type: cell-based; details: EPO induction 7 days
Experimental: (§1) Cells were plated at a density of 0.2e^6 cells/ml of 2 ml culture in 6 well plates.
FIG. 91 provides the dosing schedules used in this study.
(§2) TF1 cells were cultured in the following media: RPMI containing HEPES and L-glutamine, 10% FBS, Pen/Strep, G418 (final conc 500 μg/ml), and GM-CSF (final conc 5 ng/ml). The cells were cultured for 7 days, with or without compound treatment as described in FIG. 91.
(§3) For the hemoglobinization assay, TF1 cells were washed three times with PBS to remove residual GM-CSF then plated at (100,000 cells/ml). Cells were then induced to differentiate using EPO (2 unit/ml). Induction continued for 7 days with changing media on 4th day and adding media with fresh EPO. The cell pellets were collected and imaged for hemoglobinization content (as a surrogate for differentiation into blood lineage). Cells were pelleted, washed, stained with a panel of antibodies and analyzed by flow cytometry, using the following antibodies: […]

[2] = tested on: IDH2 mutant cell line TF1-R140Q; test: Proliferation (total, HSC and progenitor cell count) in the TF1 assay; assay type: cell-based
Experimental: as §1, §2, §3

[3] = Dynamic vapor sorption (DVS) of solid forms; assay type: physicochemical; details: relative humidity increased from about 0% to about 90% RH
Experimental: In certain embodiments, Form A is characterized by dynamic vapor sorption analysis. […] In certain embodiments, Form A comprises less than 0.1% water as determined in a coulometric Karl Fischer (KF) titrator equipped with an oven sample processor set at 225° C.
In certain embodiments, Form B is characterized by dynamic vapor sorption analysis. […] In certain embodiments, Form B comprises less than 0.1% water as determined in a coulometric Karl Fischer (KF) titrator equipped with an oven sample processor set at 225° C.
In certain embodiments, Form C is characterized by dynamic vapor sorption analysis. […] In certain embodiments, Form C comprises less than 0.1% water as determined in a coulometric Karl Fischer (KF) titrator equipped with an oven sample processor set at 225° C.

[4] = patients, literature value; read-out: clinical Cmax; cited from earlier work
[5] = tested on: primary human tumor xenograft model GA0087; test: HuPrime gastric cancer xenograft GA0087 model, in vivo efficacy; set-up: species or system female BALB/c nude mice; details: single agent, 1.25 mg/kg and 5 mg/kg
From the text: Tumor fragments from stock mice were harvested and used for inoculation into mice. Each mouse was inoculated subcutaneously at the right flank with primary human tumor xenograft model GA0087 tumor fragment (P7, 2-3 mm in diameter) for tumor development. […] After tumor inoculation, the animals were checked daily for morbidity and mortality. At the time of routine monitoring, the animals were checked for any effects of tumor growth and treatments on normal behavior such as mobility, food and water consumption, body weight gain/loss, eye/hair matting and any other abnormal effect. Death of euthanized mouse was recorded. All groups were terminated on Day 40. Three tumors in each group, with tumor volume near median of each group were collected. Plasma of the same mice were collected. For comparison among three or more groups, one-way ANOVA was performed followed by multiple comparison procedures. All data were analyzed using SPSS 18.0. P values <0.05 is considered to be statistically significant.

[6] = tested on: IL3 independent JAK2 V617F BaF3 cells; test: Combination studies with JAK2 inhibitors in engineered BaF3 cells, CellTitre-Glo after 3 days; assay type: cell-based; details: compared to the IL3 dependent lines
Experimental: Everolimus was included as a control. The cell viability was then measured by CellTitre-Glo® after 3 days.

[7] = tested on: GSPT1 and mTORC1 effectors in BON cells; test: Western blot of BON cell lysates after 120 h treatment; assay type: cell-based
Experimental: BON cells were cultured in DMEM: F12K media containing 10% fetal bovine serum and penicillin/streptomycin antibiotics. […] Cells were harvested and probed with antibodies for western blots and imaged using a Li-Cor Odyssey imaging system. All total and phosphorylated antibodies were obtained from Cell Signaling Technology.

[8] = tested on: GSPT1 expression, mTOR activation, Mcl-1 expression and Caspase-3 cleavage in AML cells; test: Immunoblot analysis of AML cells treated with Compound 1 and everolimus; assay type: cell-based
From the text: Whole cell extracts were collected and subjected to immunoblot analysis.

[9] = tested on: human QGP1 pancreatic somatostatinoma xenografts
Experimental: Treatment began on Day 1 in nine groups of mice (n=10) with established subcutaneous QGP1 tumors. […] Tumors were measured using calipers twice each week to the end of the study on Day 52. Three tumors at or near the group median tumor volume 2000 mm^3 endpoint were sampled from each group.
Treatment efficacy was based on tumor growth inhibition (TGI), defined as the difference between the final (Day 52) median tumor volumes (MTVs) of treated and control mice. The results were analyzed utilizing the Mann-Whitney U-test, and were deemed statistically significant at P≤0.05. Drug tolerability was assessed by body weight measurements and by frequent observation of treated animals.

MOLM-13 = test: In vitro combination studies, CellTitre-Glo cell viability; details: MOLM-13; in combination with Compound 1
MV-4-11 = test: as above; details: MV-4-11; in combination with Compound 1
OCI-AML-2 = test: as above; details: OCI-AML-2; in combination with Compound 1
F-36-P = test: as above; details: F-36-P; in combination with Compound 1
OCT-AML-3 = test: as above; details: OCI-AML-3; in combination with Compound 1
NOMO-1 = test: as above; details: NOMO-1; in combination with Compound 1
ML-2 = test: as above; details: ML-2; in combination with Compound 1
KG-1 = test: as above; details: KG-1; in combination with Compound 1
HNT-34 = test: as above; details: HNT-34; in combination with Compound 1
HL-60 = test: as above; details: HL-60; in combination with Compound 1
[10] = GA0087 PDX model ex vivo 3D methylcellulose CellTiter-Glo cell viability assay (IC50, matrix combination, Combination Index); details: read-out: Absolute IC50
Experimental: (§4) Materials and Methods: The stomach cancer cell line GA0087 was used in this study. […] Culture media was purchased from GIBCO or Sigma, USA.
(§5) Everolimus was obtained from Selleck. Cisplatin was used as a reference drug, and was obtained from Hospira Australia pty Ltd.
(§6) PDX tumor models were maintained at Crownbio HuPrime animal facility. Tumor growth was monitored weekly. Tumor volumes were measured in two dimensions using a caliper, and the volume was expressed in mm^3 using the formula: V=0.5 a×b^2 where a and b are the long and short diameters of the tumor, respectively. • 2. Mouse xenografts at tumor volume around 800 mm^3 were housed with sterile surgical tools and tumor tissue was minced into tiny pieces with scissors in small amount of PBS on a new tissue culture plate. • 3. The cell suspension was filtered through Falcon cell strainer. The nylon mesh was washed 3-5 times with PBS. • 4. The cell suspension was centrifuged at 1000 rpm for 5 minutes and the pellet was washed with PBS and centrifuged again. • 5. Red blood cells were removed using red blood cell lysis buffer. • 6. The cell suspension was centrifuged at 1000 rpm for 5 minutes and the pellet was washed with PBS and centrifuged again. • 7. The cell pallet was re-suspended with appropriate cell culture media for different cells. • 8. Cells were counted with Countstar by trypan blue exclusion.
(§7) Day −1: Cell Plating • 1. The cells were harvested during the logarithmic growth period. The harvested cells were cultured with appropriate cell media and centrifuged at 1000 rpm for 3 minutes. […] (Cell concentration was adjusted according to the data base or density optimization assay). • 3. 3.5 mL of cell suspension was mixed with 6.5 mL of 1% methylcellulose. […] 90 μL cell suspensions were added to 96-well plates according to plate map with final cell density. Two duplicate plates were set up: one for day 0 reading (T0) and the other was cultured in incubator for reading at the end point.
(§8) Day 0: T0 Plate Reading and Compound Treatment • 5.10 μL culture medium was added to T0 plate in each well for T0 reading. • 6.100 μl CellTiter-Glo® Reagent was added to each well. • 7. The contents were mixed for 2 minutes on an orbital shaker to facilitate cell lysis. • 8. The plates were allowed to incubate at room temperature for 10 minutes to stabilize luminescent signal. • 9. A backseal black sticker was placed to the bottom of each plate. • 10. The luminescence was read using EnVision Multi Label Reader. • 11.
(§9) The solutions were stored at −20° C. […] The response score was calculated by normalizing to DMSO control. The combination index (CI) was calculated using Chou and Talalay method, wherein a CI of less than 1 indicates synergy. Cisplatin was used as control in the single compound dose response, but was not included in the combination test.
(§10) After drug incubation, pictures for representative wells were taken using a phase contrast microscope. • 13. 100 μL CellTiter-Glo® Reagent was added to each well. • 14. Contents were mixed for 2 minutes on an orbital shaker to facilitate cell lysis. • 15. The plates were allowed to incubate at room temperature for 10 minutes to stabilize luminescent signal. • 16. Backseal black sticker was placed to the bottom of each plate. • 17. Luminescence was recorded using EnVision Multi Label Reader.
(§11) In order to calculate IC50, a dose-response curve was fitted using nonlinear regression model with a sigmoidal dose response. The formula of surviving rate is shown below, and the IC50 was automatically produced by GraphPad Prism 5.0.
(§12) The surviving rate (%)=(LumTest article−LumMedium control)/(LumNone treated−LumMedium control)×100%.

[11] = tested on: stomach cancer cell line GA0087; test: as above
Experimental: as §4, §5, §6, §7, §8, §9, §10, §11, §12

[12] = tested on: JAK2V617F AML cell lines HEL, SET-2, MUTZ-8; test: Combination studies with JAK2 inhibitors in AML cell lines, CellTitre-Glo after 3 days; assay type: cell-based
Experimental: The cell viability was measured by CellTitre-Glo® after 3 days as described elsewhere herein.

AML cell lines = test: In vitro combination studies, CellTitre-Glo cell viability (Bliss, Loewe, HSA, CES synergy analysis); details: FLT3 and JAK inhibitors in combination with Compound 1 in MOLM-13 and NOMO-1 cell lines
Experimental: where EA and EB represent the effect of each single agent and EAB represents the effect of the combination at a given dose.
All data was analyzed using the CES equation:
In cases where single agent dose response fit a Hill slope, the CES analysis was compared to Loewe, Bliss, and HSA models.

physchem = assay type: physicochemical
From the text: “Compound 1, Form C” or “Form C” or “API”” in the Examples herein refers to polymorph Form C of 2-(4-chlorophenyl)-N-((2-(2,6-dioxopiperidin-3-yl)-1-oxoisoindolin-5-yl)methyl)-2,2-difluoroacetamide. “Compound 1, Form A” or “Form A” in the Examples herein refers to polymorph Form A of 2-(4-chlorophenyl)-N-((2-(2,6-dioxopiperidin-3-yl)-1-oxoisoindolin-5-yl)methyl)-2,2-difluoroacetamide.

## CC(C)(O)CNc1nc(Nc2ccnc(C(F)(F)F)c2)nc(-c2cccc(C(F)(F)F)n2)n1 [enasidenib, reference compound]
[1]
  hemoglobin expression: increase in hemoglobin expression
[2]
  proliferation (total, HSC and progenitor cell count): mild growth promoting effect

## O=C1CCC(N2Cc3cc(CNC(=O)C(F)(F)c4ccc(Cl)cc4)ccc3C2=O)C(=O)N1 (stereo not drawn) [Form A, 2-(4-chlorophenyl)-N-((2-(2,6-dioxopiperidin-3-yl)-1-oxoisoindolin-5-yl)methyl)-2,2-difluoroacetamide]
[3]
  water uptake (DVS): about 1.2 % w/w

## N#CC[C@H](C1CCCC1)n1cc(-c2ncnc3[nH]ccc23)cn1 [ruxolitinib]
[4]
  Cmax: 500 to 1000 nM

## O=C1CCC(N2Cc3cc(CNC(=O)C(F)(F)c4ccc(Cl)cc4)ccc3C2=O)C(=O)N1 (stereo not drawn) [Form B, 2-(4-chlorophenyl)-N-((2-(2,6-dioxopiperidin-3-yl)-1-oxoisoindolin-5-yl)methyl)-2,2-difluoroacetamide]
[3]
  water uptake (DVS): about 1.4 % w/w

## CO[C@H]1C[C@@H]2CC[C@@H](C)[C@@](O)(O2)C(=O)C(=O)N2CCCC[C@H]2C(=O)O[C@H]([C@H](C)C[C@@H]2CC[C@@H](OCCO)[C@H](OC)C2)CC(=O)[C@H](C)/C=C(\C)[C@@H](O)[C@@H](OC)C(=O)[C@H](C)C[C@H](C)/C=C/C=C/C=C/1C [everolimus, reference compound]
[5]
  anti-tumor activity: moderate anti-tumor activity
[6]
  single agent sensitivity: more sensitive
[7]
  effect on mTORC1 effectors (p4EBP1, phosphorylation of S6): dramatically decreased phosphorylation of S6 and phosphorylation of 4EBP1
[8]
  GSPT1 expression/degradation, Mcl-1 loss, Caspase-3 cleavage: minimal effect
  activation of the mTOR pathway (phosphorylation of S6K1 and 4E-BP1): significantly blocked the activation of the mTOR pathway
[9]; 3 mg/kg i.p. qd x 21, Day 52
  tumor growth inhibition: 41%
[9]; 10 mg/kg i.p. qd x 21, Day 52
  tumor growth inhibition: 39%
MOLM-13
  Synergy analysis for combinations with Compound 1: Yes
MV-4-11
  Synergy analysis for combinations with Compound 1: Yes
OCI-AML-2
  Synergy analysis for combinations with Compound 1: Yes
F-36-P
  Synergy analysis for combinations with Compound 1: Yes
OCT-AML-3
  Synergy analysis for combinations with Compound 1: Yes
NOMO-1
  Synergy analysis for combinations with Compound 1: No
ML-2
  Synergy analysis for combinations with Compound 1: Yes
KG-1
  Synergy analysis for combinations with Compound 1: No
HNT-34
  Synergy analysis for combinations with Compound 1: No
HL-60
  Synergy analysis for combinations with Compound 1: No
[10]; GA0087-1st experiment
  IC50: 6.1 nM
[10]; GA0087-2nd experiment
  IC50: 7.5 nM
[11]; GA0087-1st experiment
  Maximal Inhibition: 73.15%
[11]; GA0087-2nd experiment
  Maximal Inhibition: 72.80%

## C[C@H](Nc1cc(-c2cnn(C)c2)cc(Nc2cnccn2)n1)c1ccc(F)cc1 [NS-018]
[6]
  single agent sensitivity: more sensitive
[12]
  cell viability, single agent: inhibit cell viability
[4]
  Cmax: 2570 nM
AML cell lines
  Synergy: Yes

## Nc1nc(Nc2ccnc(C(F)(F)F)c2)nc(-c2cccc(C(F)(F)F)n2)n1 [Compound 2, 6-(6-(trifluoromethyl)pyridin-2-yl)-N^2-(2-(trifluoromethyl)pyridin-4-yl)-1,3,5-triazine-2,4-diamine]
[1]
  hemoglobin expression: increase in hemoglobin expression

## O=C1CCC(N2Cc3cc(CNC(=O)C(F)(F)c4ccc(Cl)cc4)ccc3C2=O)C(=O)N1 (stereo not drawn) [Form C, 2-(4-chlorophenyl)-N-((2-(2,6-dioxopiperidin-3-yl)-1-oxoisoindolin-5-yl)methyl)-2,2-difluoroacetamide]
physchem
  thermodynamic stability among the crystal forms: most thermodynamically stable anhydrate
[3]
  water uptake (DVS): about 0.6 % w/w
